Assay results from BigSolDB 2.1.

CC1=C(C(=O)O)N2C(=O)[C@@H](NC(=O)[C@H](N)C3=CCC=CC3)[C@H]2SC1
solubility (mole fraction)
Conditions | 283.15 K | 285.15 K | 288.15 K | 291.15 K | 293.15 K | 298.15 K | 303.15 K | 308.15 K
in ethanol | 0.000187 | 0.000195 | 0.000217 | 0.000233 | 0.000249 | 0.000299 | 0.000368 | 0.000442
in methanol | 0.000575 | 0.00061 | 0.00065 | 0.000702 | 0.000738 | 0.000845 | 0.000955 | 0.00108
in n-butanol | 0.000265 | 0.000288 | 0.000335 | 0.000369 | 0.000405 | 0.000478 | 0.000567 | 0.000657
in n-propanol | 0.00019 | 0.000198 | 0.000214 | 0.000238 | 0.000253 | 0.000319 | 0.000381 | 0.000469
in water | 0.00114 | – | 0.00115 | – | 0.00116 | 0.00117 | 0.00118 | 0.0012
